Assay results taken from patent US20090311237A1, “Combination therapy using a soluble hyaluronidase and a bisphosphonate” (priority 2008, published 2009).
“And” between values parts separate entries of the source, which are not always exact repeats. Identical values can stand only once.

Experiment: Phase 1 Stage 1 clinical pharmacokinetics of SC ZA co-administered with rHuPH20
Format: in vivo, human
Details: for MAT (mean absorption time = SC MRT − IV MRT) / MAT, Mean for the dose group / MAT, Median for the dose group: 100 mL, 24000 Units rHuPH20
Experimental: A pharmacokinetic study of zoledronic acid (ZA) co-administered with rHuPH20 in human subjects was conducted. The primary objective of the study was to determine the bioavailability of zoledronic acid dosed via subcutaneous (SC) co-administration with human recombinant hyaluronidase PH20 (rHuPH20). […] The patients were administered the prescribed dosage formulations as follows: Cohorts 1-5 were administered a single subcutaneous infusion in a dosage volume of 100 ml at a rate of 3 mL/min. […] The dosing solution is administered via needle or catheter into the SC space of the left anterior thigh (midway between the anterior iliac crest and the cephalad border of the patella). For cohorts 1-5, the dosing solutions were administered by a controlled rate infusion pump at approximately 3 mL/minute. […] The dosing solutions were administered by syringe push bolus injection. […] Serum concentration of ZA was determined using a qualified LC-MS-MS assay after derivatization with diazomethane (Zhu, L S et al. (2006) Rapid Commun. […] The assay range was from 2.0 to 400 ng/mL with a lower limit of quantitation (LLOQ) at 2.0 ng/mL. […] Non-compartmental analysis was used for derivation of primary and secondary pharmacokinetic (PK) parameters. […] Summary statistics (mean, standard deviation, and median) were calculated using JMP or Microsoft Excel.

[1] = Subj 51, ZA […] SC, inf 0.251 hr, PH20 6024 U
[2] = Subj 63, ZA 0.0820 mg/kg SC, inf […], PH20 6000 U
[3] = Subj 67, ZA 0.0717 mg/kg SC, inf […], PH20 2880 U
[4] = Subj 68, ZA 0.0608 mg/kg SC, inf […], PH20 2880 U
[5] = Subj 70, ZA 0.0776 mg/kg SC, inf […], PH20 2928 U
[6] = Subj 71, ZA 0.0781 mg/kg SC, inf […], PH20 6000 U
[7] = Subj 74, ZA 0.0794 mg/kg SC, inf […], PH20 6000 U
[8] = Subj 77, ZA […] SC, inf […], PH20 6000 U
[9] = ZA 0.25 mg SC + 24000 U rHuPH20, individual subjects
[10] = ZA 0.25 mg SC + 24000 U rHuPH20, mean, n=3
[11] = ZA 0.25 mg SC + 24000 U rHuPH20, median, n=3
[12] = ZA 0.5 mg SC + 24000 U rHuPH20, individual subjects
[13] = ZA 0.5 mg SC + 24000 U rHuPH20, mean, n=3
[14] = ZA 0.5 mg SC + 24000 U rHuPH20, median, n=3
[15] = ZA 1 mg SC + 24000 U rHuPH20, individual subjects
[16] = ZA 1 mg SC + 24000 U rHuPH20, mean, n=3
[17] = ZA 1 mg SC + 24000 U rHuPH20, median, n=3
[18] = ZA 2 mg SC + 24000 U rHuPH20, individual subjects

In the case of `O=P(O)(O)C(O)(Cn1ccnc1)P(=O)(O)O` [ZA, 1-hydroxy-2-(1H-imidazol-1-yl)ethylidene-1,1-bisphosphonic acid], the Vss [1] is reported as 1.27627 L/kg, the Vz [1] is reported as 3.04413 L/kg and the “AUC (0-inf)/D” value [2] is reported as 0.008077 kg·h/mL. For the same molecule, the CL [2] was 2.0635 mL/min/kg, the Cmax/D [2] was 0.002037 kg/mL and the Vss [2] was 1.473 L/kg. For the same molecule, the Vz [2] was 3.66662 L/kg, the “AUC (0-inf)/D” value [3] was 0.01012 kg·h/mL and the CL [3] was 1.648 mL/min/kg. The Cmax/D [3] was 0.002176 kg/mL, the Vss [3] was 1.03944 L/kg and the Vz [3] was 2.6134 L/kg. The “AUC (0-inf)/D” value [4] was 0.01035 kg·h/mL, the CL [4] was 1.61 mL/min/kg and the Cmax/D [4] was 0.002368 kg/mL. For the same molecule, the Vss [4] was 1.59221 L/kg, the Vz [4] was 3.88814 L/kg and the “AUC (0-inf)/D” value [5] was 0.008898 kg·h/mL. The CL [5] was 1.873 mL/min/kg, the Cmax/D [5] was 0.002771 kg/mL and the Vss [5] was 0.98673 L/kg. The Vz [5] was 3.15269 L/kg, the “AUC (0-inf)/D” value [6] was 0.008873 kg·h/mL and the CL [6] was 1.8783 mL/min/kg. It also gave a Cmax/D [6] of 0.002535 kg/mL, a Vss [6] of 0.87424 L/kg and a Vz [6] of 3.12259 L/kg. The “AUC (0-inf)/D” value [7] was 0.006994 kg·h/mL, the CL [7] was 2.3828 mL/min/kg and the Cmax/D [7] was 0.001511 kg/mL. The Vss [7] was 1.84253 L/kg, the Vz [7] was 4.88924 L/kg and the “AUC (0-inf)/D” value [8] was 0.008412 kg·h/mL. For the same molecule, the CL [8] was 1.9812 mL/min/kg, the Cmax/D [8] was 0.001824 kg/mL and the Vss [8] was 1.60873 L/kg. The Vz [8] was 4.21769 L/kg, the “AUC (0-12h)” value [9] was 29.30 ng·h/mL and the “AUC (0-∞)” value [9] was 30.00 ng·h/mL and 31.77 ng·h/mL. For the same molecule, the “AUC (0-∞)/D” value [9] was 0.00926 kg·h/mL and 0.00674 kg·h/mL and 0.00971 kg·h/mL, the Cmax/D [9] was 0.00205 kg/mL and 0.00174 kg/mL and 0.00173 kg/mL and the MRT [9] was 4.21 h. The T½elim [9] was 1.88 h and 2.44 h and 2.10 h, the “AUC (0-∞)/D” value [10] was 0.00857 kg·h/mL and the Cmax/D [10] was 0.00184 kg/mL. For the same molecule, the T½elim [10] was 2.14 h, the “AUC (0-∞)/D” value [11] was 0.00926 kg·h/mL and the Cmax/D [11] was 0.00174 kg/mL. For the same molecule, the T½elim [11] was 2.10 h, the “MAT (mean absorption time = SC MRT − IV MRT)” value (ZA 0.25 mg SC, individual subjects) was 1.47 h and 1.03 h and 2.31 h and the “MAT, Mean for the dose group” value (ZA 0.25 mg SC, n=3) was 1.60 h. The “MAT, Median for the dose group” value (ZA 0.25 mg SC, n=3) was 1.47 h, the “AUC (0-12h)” value [12] was 66.33 ng·h/mL and the “AUC (0-∞)” value [12] was 68.26 ng·h/mL. The “AUC (0-∞)/D” value [12] was 0.00709 kg·h/mL and 0.00766 kg·h/mL and 0.00968 kg·h/mL, the Cmax/D [12] was 0.00174 kg/mL and 0.00192 kg/mL and 0.00214 kg/mL and the MRT [12] was 3.35 h. The T½elim [12] was 2.24 h and 2.27 h (2×), the “AUC (0-∞)/D” value [13] was 0.00814 kg·h/mL and the Cmax/D [13] was 0.00193 kg/mL. The T½elim [13] was 2.26 h, the “AUC (0-∞)/D” value [14] was 0.00766 kg·h/mL and the Cmax/D [14] was 0.00192 kg/mL. The T½elim [14] was 2.27 h, the “MAT (mean absorption time = SC MRT − IV MRT)” value (ZA 0.5 mg SC, individual subjects) was 1.00 h and 1.11 h and the “MAT, Mean for the dose group” value (ZA 0.5 mg SC, n=3) was 1.03 h. The “MAT, Median for the dose group” value (ZA 0.5 mg SC, n=3) was 1.00 h, the “AUC (0-12h)” value [15] was 137.25 ng·h/mL and the “AUC (0-∞)” value [15] was 158.68 ng·h/mL. For the same molecule, the “AUC (0-∞)/D” value [15] was 0.00701 kg·h/mL and 0.01176 kg·h/mL and 0.00624 kg·h/mL, the Cmax/D [15] was 0.00174 kg/mL and 0.00247 kg/mL and 0.00128 kg/mL and the MRT [15] was 6.25 h. For the same molecule, the Tmax [15] was 0.73 h, the T½elim [15] was 12.87 h and 13.95 h and 8.85 h and the “AUC (0-∞)/D” value [16] was 0.00834 kg·h/mL. For the same molecule, the Cmax/D [16] was 0.00183 kg/mL, the T½elim [16] was 11.89 h and the “AUC (0-∞)/D” value [17] was 0.00701 kg·h/mL. The Cmax/D [17] was 0.00174 kg/mL, the T½elim [17] was 12.87 h and the “MAT (mean absorption time = SC MRT − IV MRT)” value (ZA 1 mg SC, individual subjects) was 1.41 h and 1.00 h. For the same molecule, the “MAT, Mean for the dose group” value (ZA 1 mg SC, n=3) was 1.36 h, the “MAT, Median for the dose group” value (ZA 1 mg SC, n=3) was 1.41 h and the “AUC (0-12h)” value [18] was 213.87 ng·h/mL and 236.51 ng·h/mL. For the same molecule, the “AUC (0-∞)” value [18] was 245.47 ng·h/mL and 293.51 ng·h/mL, the “AUC (0-∞)/D” value [18] was 0.00739 kg·h/mL and 0.00809 kg·h/mL and 0.00825 kg·h/mL and the Cmax/D [18] was 0.00188 kg/mL and 0.00175 kg/mL and 0.00165 kg/mL. For the same molecule, the MRT [18] was 10.59 h.
